Reference: PMC11523249, “Expanding the antiprotozoal activity and the mechanism of action of n-butyl and iso-butyl ester of quinoxaline-1,4-di-N-oxide derivatives against Giardia lamblia, Trichomonas vaginalis, and Entamoeba histolytica. An in vitro and in silico approach” (Journal of Enzyme Inhibition and Medicinal Chemistry, 2024)
Like-named read-outs stand apart in the source and are kept apart here.

Columns and labels:
G. lamblia WB strain = experiment: In vitro susceptibility assay, G. lamblia trophozoites; format: cell-based, Giardia lamblia; conditions: for Selectivity index, G. lamblia versus macrophages: CC50 J774.2 / IC50 G. lamblia
Description: (§1) G. lamblia WB strain, T. vaginalis GT3 strain, and E. histolytica strain HM1-IMSS were used in all experiments, all parasitic strains were obtained from the Unidad de Investigación Médica en Enfermedades Infecciosas y Parasitarias, Hospital de Pediatría, Instituto Mexicano del Seguro Social. In vitro susceptibility assays to determine IC50 values were performed using a method previously described. For this, 4 × 10^4 G. lamblia; 6 × 10^3 E. histolytica, or 4 × 10^4 T. vaginalis trophozoites were incubated for 48 h at 37 °C with different concentrations of quinoxaline derivatives T-137 to T-170 (0.5 ng/mL to 10 μg/mL) using dimethyl sulfoxide (DMSO) (0.05%) as solvent. Metronidazole and albendazole were used as positive controls, and parasites in the medium without drugs containing DMSO (0.05%) were included as negative controls. At the end of the incubation period, trophozoites were washed and subcultured for another 48 h in a fresh medium without drugs. Then, trophozoites were counted with a haemocytometer and the IC50 was calculated by Probit analysis. Experiments were carried out in triplicate and repeated at least twice.

T. vaginalis GT3 strain = experiment: In vitro susceptibility assay, T. vaginalis trophozoites; format: cell-based, Trichomonas vaginalis
Description: as §1

[1] = test system: E. histolytica strain HM1-IMSS; experiment: In vitro susceptibility assay, E. histolytica trophozoites; format: cell-based, Entamoeba histolytica; conditions: for IC50: Entamoeba histolytica, 48 h, read-out: E. histolytica (IC50 nM), trophozoites, 48 h at 37 °C, subcultured 48 h, Probit analysis
Description: as §1

[2] = test system: murine macrophage cell line J774.2; experiment: Cytotoxic evaluation, MTT colorimetric assay; format: cell-based; conditions: murine macrophages J774.2, read-out: Cytotoxicity (Macrophages J774.2) (CC50)
Description: (§2) The murine macrophage cell line J774.2 was maintained in culture flasks with RPMI 1640 medium supplemented with 10% FBS, and 100 U/mL antibiotic-antifungal mixture (Gibco). Cells were incubated at 37 °C with 5% CO2 and humidity. Murine macrophage cell line J774.2 is maintained at Laboratorio de Estudios Epidemiológicos, Clínicos, Diseños Experimentales e Investigación, Facultad de Ciencias Químicas, Universidad Autónoma “Benito Juárez” de Oaxaca. Macrophages were washed and viability was assessed by the MTT colorimetric assay. In a 96-well microplate, 1 × 10^5 macrophages were added per well and a dose-response assay was performed. Compounds were evaluated using serial dilutions to determine half-maximal cytotoxic concentration (CC50) values in triplicate considering 0.2% DMSO as negative control.

recombinant GlTIM [3] = molecular target: T1, recombinant GlTIM (Giardia intestinalis, UniProt P36186); experiment: Inhibition of recombinant GlTIM enzyme activity; format: biochemical, Giardia lamblia
T1 construct: His-tag with TEV site (pET3a-HisTEV); made in house; host or cells: Escherichia coli BL21(DE3) pLys
Description: Escherichia coli BL21(DE3) pLys bacteria containing the plasmid pET3a-HisTEV with the gene coding for GlTIM wild type were grown in LB medium supplemented with 0.1 mg/mL ampicillin and incubated at 37 °C[40]. When the cultures reached Abs600 = 0.8, they were induced to express the recombinant enzyme using 0.4 mM IPTG and incubated overnight at 30 °C with shaking at 180 rpm. After induction and growth, the bacteria were collected by centrifugation (6500 rpm, 15 min) and suspended in 40 mL of lysis buffer (pH 8.0) containing 50 mM Tris, 50 mM NaCl, 5 mM β-mercaptoethanol, and 1 mM phenylmethylsulfonyl fluoride (PMSF). The bacterial suspension was disrupted by sonication and centrifuged at 9000 rpm for 1 h, at 4 °C. Protein purification was performed via IMAC using a Profinity Ni^2+ charged resin previously equilibrated with lysis buffer. The soluble protein fraction was mixed with the equilibrated Ni^2+ charged resin and incubated at room temperature with shaking for 30 min. Then, the column was washed with the same buffer (10 column volumes) to remove proteins without the His-tag sequence. The desired proteins were eluted with lysis buffer containing 200 mM imidazole and adjusted to pH 8.0. The purified protein was concentrated using Amicon ultrafiltration units. The purity of the enzymes was analysed via sodium dodecyl sulfate-polyacrylamide gel electrophoresis (16% SDS–PAGE gel) and stained with colloidal Coomassie Brilliant Blue. The enzyme concentration was spectrophotometrically determined (Spectrophotometer Cary 50, Varian Inc.) at 280 nm using the extinction coefficient ε280 = 26,600 M^−1 cm^−1.
(§3) For the inhibition assays, freshly purified recombinant GlTIM was incubated at 0.2 mg/mL for 2 h at 37 °C in the presence of 500 μM of each n-butyl and iso-butyl quinoxaline-7-carboxylate-1,4-di-N-oxide derivatives. After incubation, the samples were diluted, and 5 ng/mL were taken to measure their enzymatic activity. Enzyme activity was spectrophotometrically measured (Spectrophotometer Cary 50, Agilent Technologies, CA, USA) by following DHAP synthesis with a coupled system that followed the oxidation of NADH at 340 nm[41]. Results are expressed as the percent activity versus each compound at 500 μM, with the enzyme activity without any drug set as 100%. Additionally, GlTIM and HsTIM (separately) were incubated at 0.2 mg/mL for 2 h at 37 °C in the presence of 5, 10, 50, 150, 250, 350, and 500 μM of the T-167 derivative. Results are expressed as the percent activity versus T-167 concentration. All results represent the arithmetic mean of at least four independent experiments.

[4] = molecular target: T2, recombinant E. histolytica thioredoxin reductase (EhTRXR) (Entamoeba histolytica, UniProt C4LW95); experiment: Inhibition of EhTrxR DTNB reductase activity; format: biochemical; conditions: for inhibition at 100 µM: pH 7, read-out: EhTrxR inhibitory effect (disulphide reductase activity)
T2 construct: His-tag (pET28a) (N); made in house; host or cells: E. coli BL21 (DE3)
T2 sequence (C4LW95 1-314): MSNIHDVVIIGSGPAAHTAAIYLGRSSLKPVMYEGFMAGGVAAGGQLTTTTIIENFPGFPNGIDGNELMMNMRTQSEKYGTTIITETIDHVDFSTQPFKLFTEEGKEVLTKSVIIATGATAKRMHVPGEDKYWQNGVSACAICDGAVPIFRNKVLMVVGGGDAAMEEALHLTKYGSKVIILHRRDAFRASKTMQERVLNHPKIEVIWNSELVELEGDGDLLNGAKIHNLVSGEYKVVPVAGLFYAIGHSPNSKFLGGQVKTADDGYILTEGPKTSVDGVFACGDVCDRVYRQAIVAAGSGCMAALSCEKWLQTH
Description: Recombinant E. histolytica thioredoxin reductase (EhTRXR) was expressed in E. coli BL21 (DE3) as His-tag (N-terminal) recombinant proteins using pET28a vector, and it was purified using IMAC as previously described. 5,5′-Dithiobis(2-nitrobenzoic acid) (DTNB) reductase activity was measured by monitoring the production of thionitrobenzoate at 405 nm in a reaction mixture comprising 50 mM potassium phosphate, pH 7.0, 2 mM EDTA, 300 µM NADPH, 5 mM DTNB, and 0.1 µM EhTRXR. Activity was calculated using the molar extinction coefficient at 405 nm of 13.6 mM^−1cm^− 1 and considering that 1 mol of NADPH yields 2 mol of thionitrobenzoate. The enzyme assays were performed at 30 °C, in a final volume of 50 μL, and using a Multiskan Ascent one-channel vertical light path filter photometer (Thermo Electron Co.). All results represent the arithmetic mean of at three independent experiments.

[5] = test system: G. lamblia trophozoites (WB strain); experiment: Attachment and viability of G. lamblia trophozoites; format: cell-based, Giardia lamblia; conditions: for Concentration at which detachment and cytotoxicity took impact: 24 h of incubation at 37 °C; for Detachment of trophozoites: cultures incubated with compound
Description: Cytotoxicity of a drug is not the only important characteristic to cope with the pathogenesis of G. lamblia. It is known that the attachment of the trophozoites to the microvillus border of the small intestine is a crucial step for causing disease. […] T-143 and T-146 had the highest cytotoxic effect on giardia trophozoites (Figure 2(A,B), respectively). Detachment of trophozoites in cultures incubated with T-146 or T-161 was undetectable, with their impact directly through cytotoxicity (Figure 2(B)).

recombinant GlTIM [6] = molecular target: T1, recombinant GlTIM; design: method as in PMID 25223993; conditions: cited from earlier work
[7] = Cytotoxic evaluation, MTT colorimetric assay; format: cell-based; conditions: mouse, J774.2 macrophage cell line, murine macrophages J774.2, read-out: Cytotoxicity (Macrophages J774.2) (CC50)
Description: as §2

human TIM (HsTIM) = molecular target: T3, human TIM (HsTIM) (Homo sapiens, UniProt P60174); experiment: Inhibition of recombinant HsTIM enzyme activity; format: biochemical
T3 construct: His-tag with TEV site (pET3a-HisTEV); made in house; host or cells: E. coli BL21-CodonPlus (DE3)-RIL
Description: Expression of human TIM (HsTIM) was performed by using the E. coli BL21-CodonPlus (DE3)-RIL strain (Stratagene) containing the plasmid pET3a-HisTEV with the gene coding for HsTIM. Expression and purification steps were as above-mentioned for GlTIM. The enzyme concentration was spectrophotometrically determined (Spectrophotometer Cary 50, Varian Inc.) at 280 nm using the extinction coefficient ε280 = 33,460 M^−1 cm^−1.
as §3

[8] = molecular target: T2, recombinant E. histolytica thioredoxin reductase (EhTRXR); design: method as in earlier work; conditions: ref 34 (Sóto-Sánchez et al. 2020); cited from earlier work
[9] = Giardia duodenalis, 48 h, read-out: G. lamblia (IC50 nM), trophozoites, 48 h at 37 °C, subcultured 48 h, Probit analysis
[10] = read-out: G. lamblia (IC50 nM), trophozoites, 48 h at 37 °C, subcultured 48 h, Probit analysis
[11] = Trichomonas vaginalis, GT3, 48 h, read-out: T. vaginalis (IC50 nM), trophozoites, 48 h at 37 °C, subcultured 48 h, Probit analysis
[12] = read-out: T. vaginalis (IC50 nM), trophozoites, 48 h at 37 °C, subcultured 48 h, Probit analysis

T1 sequence (P36186 whole entry): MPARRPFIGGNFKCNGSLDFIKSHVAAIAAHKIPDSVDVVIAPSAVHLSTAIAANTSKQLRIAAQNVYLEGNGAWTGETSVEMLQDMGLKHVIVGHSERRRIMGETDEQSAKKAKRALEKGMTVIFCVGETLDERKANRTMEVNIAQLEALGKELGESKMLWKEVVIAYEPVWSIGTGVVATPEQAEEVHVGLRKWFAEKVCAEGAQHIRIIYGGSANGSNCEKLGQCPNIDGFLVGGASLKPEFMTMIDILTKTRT
T3 sequence (P60174 whole entry): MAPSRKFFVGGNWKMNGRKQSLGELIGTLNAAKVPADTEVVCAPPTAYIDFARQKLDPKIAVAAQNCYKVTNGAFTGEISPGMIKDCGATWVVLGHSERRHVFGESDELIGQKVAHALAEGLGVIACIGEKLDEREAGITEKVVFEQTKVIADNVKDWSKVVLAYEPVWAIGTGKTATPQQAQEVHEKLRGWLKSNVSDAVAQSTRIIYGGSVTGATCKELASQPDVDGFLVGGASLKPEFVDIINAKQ

Structure (SMILES)	IC50 (G. lamblia WB strain; [9]) [nM]	IC50 (G. lamblia WB strain; [10]) [nM]	IC50 (T. vaginalis GT3 strain; [11]) [nM]	IC50 (T. vaginalis GT3 strain; [12]) [nM]	IC50 [1] [nM]	CC50 [2] [µM]	inhibition at 500 µM (recombinant GlTIM [3]; 500 µM compound, 2 h at 37 °C) [%]	inhibition at 100 µM [4] [%]	Concentration at which detachment and cytotoxicity took impact [5] [µM]	also measured
CCCCOC(=O)c1ccc2c(c1)[n+]([O-])c(C(=O)OCC)c(C(F)(F)F)[n+]2[O-] [Compound T-146]	< 30	26.1 ± 6.22	~100	102 ± 2.49	64.7 ± 3.73	> 200	37.3	50 to 75	25	Detachment of trophozoites [5]: undetectable
COc1ccc2[nH]c([S+]([O-])Cc3ncc(C)c(OC)c3C)nc2c1 (stereo not drawn) [omeprazole]	–	–	–	–	–	–	–	–	–	Concentration attaining 70% inhibition of GlTIM (recombinant GlTIM [6]): about 300 µM; Concentration wholly inhibiting GlTIM activity (recombinant GlTIM [6]): 750 µM
Cc1c(C(=O)Nc2ccc(Cl)cc2)[n+]([O-])c2cc(C(=O)OCC(C)C)ccc2[n+]1[O-] [Compound T-161]	120 ± 1.16	–	137 ± 3.5	–	29.1 ± 3.5	–	19.7	> 75	25	IC50 ([4]; DTNB reductase activity, 30 °C, pH 7.0): 18 µM; Detachment of trophozoites [5]: undetectable
CC(=O)c1c(Nc2ccc(C)cc2C)[n+]([O-])c2ccc(C(=O)OCC(C)C)cc2[n+]1[O-] [Compound T-170]	109 ± 3.55	–	130 ± 8.27	–	33.1 ± 2.36	–	–	–	–	CC50 [7]: > 200 µM
CC(=O)c1c(C(F)(F)F)[n+]([O-])c2ccc(C(=O)OCC(C)C)cc2[n+]1[O-] [Compound T-167]	< 30	25.5 ± 1.34	< 90	90 ± 6.72	64.5 ± 5.38	25.4 ± 0.0815	99.7	–	25	Selectivity index, G. lamblia versus macrophages (G. lamblia WB strain): 994 fold; inhibition at 10 µM (recombinant GlTIM [3]; 10 µM T-167, 2 h at 37 °C): > 20%; GlTIM inhibition (recombinant GlTIM [3]; 500 µM compound, 2 h at 37 °C): wholly inhibited; GlTIM residual activity (recombinant GlTIM [3]; 50 to 350 µM T-167): ~25%; Decrease of GlTIM enzyme activity (recombinant GlTIM [3]; <10 to 50 µM T-167): above 70%; Effect on HsTIM enzyme activity (human TIM (HsTIM); 10 µM T-167, 2 h at 37 °C): unaffected; HsTIM retained activity (human TIM (HsTIM); 500 µM T-167, when GlTIM activity is completely depleted): more than 75%; HsTIM loss of activity (human TIM (HsTIM); 50 to 350 µM T-167): no more than 10%
CC(=O)c1c(-c2ccccc2)[n+]([O-])c2ccc(C(=O)OCC(C)C)cc2[n+]1[O-] [Compound T-168]	39.5 ± 2.63	–	150 ± 14.5	–	50 ± 2.63	–	–	–	–	CC50 [7]: 28.5 ± 1.69 µM
CCOC(=O)c1c(C(F)(F)F)[n+]([O-])c2ccc(C(=O)OC(C)C)cc2[n+]1[O-] [Compound T-116]	–	–	–	–	–	–	–	–	–	IC50 [8]: 28 µM
CCCCOC(=O)c1ccc2c(c1)[n+]([O-])c(C(=O)Nc1ccc(Cl)cc1)c(C)[n+]2[O-] [Compound T-143]	< 30	29.1 ± 5.83	< 90	45.2 ± 6.99	15.1 ± 2.33	50.3 ± 2.8	43.7	50 to 75	25	Selectivity index, G. lamblia versus macrophages (G. lamblia WB strain): 1726 fold; Selectivity index, T. vaginalis versus macrophages (T. vaginalis GT3 strain; CC50 J774.2 / IC50 T. vaginalis): 1112 fold; Selectivity index, E. histolytica versus macrophages ([1]; CC50 J774.2 / IC50 E. histolytica): 3321 fold
